Literature values as cited in patent US7553503B2, “Phyto-nutraceutical synergistic composition for Parkinson's Disease” (priority 2006, dated 2009).
Blank lines part the entries; values can stand above or below the molecule they belong to.

Experiments:
[1] = test system: ischemic brain injury; conditions: transient focal ischemia
[2] = test system: bacterial resistance mechanism (multidrug pump); conditions: in vitro, with 5'-methoxyhydnocarpin
[3] = test system: HIV-1 viral long terminal repeat-directed gene expression
[4] = test system: substantia nigra neurons; conditions: MPTP-induced
[5] = test system: brain mitochondria and membranes
[6] = test system: mouse brain; conditions: pretreatment
[7] = test system: patients with early-stage Parkinson's disease
[8] = test system: alpha 1-adrenergic receptors
[9] = test system: alpha 2-adrenergic receptors
[10] = biological target: dopamine D2 receptors (Homo sapiens, UniProt P14416)
[11] = test system: dopamine and DOPAC in striatum, DA in hypothalamus; conditions: after administration
[12] = test system: serotonin receptors
[13] = biological target: dopamine D1 receptors (Homo sapiens, UniProt P21728)
[14] = test system: patients with tardive dyskinesia; conditions: especially tardive dyskinesia for 5 years or less

dopamine D1 receptors, sequence (P21728 whole entry): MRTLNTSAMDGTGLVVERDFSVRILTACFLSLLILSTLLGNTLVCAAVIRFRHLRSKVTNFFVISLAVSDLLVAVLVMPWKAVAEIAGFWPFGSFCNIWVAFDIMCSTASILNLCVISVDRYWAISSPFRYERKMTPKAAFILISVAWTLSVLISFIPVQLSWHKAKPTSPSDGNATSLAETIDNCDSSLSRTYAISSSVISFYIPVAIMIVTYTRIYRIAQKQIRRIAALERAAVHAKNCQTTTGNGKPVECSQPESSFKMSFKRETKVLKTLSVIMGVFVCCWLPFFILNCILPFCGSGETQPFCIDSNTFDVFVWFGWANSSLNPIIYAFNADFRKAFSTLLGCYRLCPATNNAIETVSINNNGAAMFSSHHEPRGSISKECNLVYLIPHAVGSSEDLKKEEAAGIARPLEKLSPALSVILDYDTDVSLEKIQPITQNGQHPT
dopamine D2 receptors, sequence (P14416 whole entry): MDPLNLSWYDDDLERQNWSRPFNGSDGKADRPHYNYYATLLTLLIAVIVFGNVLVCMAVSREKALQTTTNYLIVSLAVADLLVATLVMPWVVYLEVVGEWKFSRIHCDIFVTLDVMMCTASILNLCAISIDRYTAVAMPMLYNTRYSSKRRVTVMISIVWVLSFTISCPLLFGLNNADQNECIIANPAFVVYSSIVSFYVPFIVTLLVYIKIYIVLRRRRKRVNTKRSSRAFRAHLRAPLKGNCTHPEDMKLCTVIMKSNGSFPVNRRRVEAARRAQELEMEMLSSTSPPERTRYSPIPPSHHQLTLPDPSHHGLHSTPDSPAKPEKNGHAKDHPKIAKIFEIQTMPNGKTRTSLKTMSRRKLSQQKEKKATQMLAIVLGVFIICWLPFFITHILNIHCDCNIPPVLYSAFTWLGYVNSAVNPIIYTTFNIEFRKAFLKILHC

Molecule: CC(C)(O)[C@@H]1CC[C@](C)([C@H]2[C@@H](O)C[C@@]3(C)[C@@H]4C[C@H](O[C@@H]5O[C@H](CO)[C@@H](O)[C@H](O)[C@H]5O)[C@H]5C(C)(C)[C@@H](O[C@@H]6OC[C@@H](O)[C@H](O)[C@H]6O)CC[C@@]56C[C@@]46CC[C@]23C)O1 [Astragaloside IV]
infarct volume [1]: markedly and significantly reduced

Molecule: COc1ccc2cc3[n+](cc2c1OC)CCc1cc2c(cc1-3)OCO2 [Berberine]
activity of Berberine alkaloids in the presence of 5'-MHC [2]: strongly potentiated

Molecule: CC1(C)CCC2=C(O1)c1ccccc1C(=O)C2=O [Beta-lapachone]
inhibition of HIV-1 viral long terminal repeat-directed gene expression [3]: potent and selective inhibitor

Molecule: CC(C)=CCC[C@](C)(O[C@@H]1O[C@H](CO)[C@@H](O)[C@H](O)[C@H]1O)[C@H]1CC[C@]2(C)[C@@H]1[C@H](O)C[C@@H]1[C@@]3(C)CC[C@H](O)C(C)(C)[C@@H]3[C@@H](O[C@@H]3O[C@H](CO)[C@@H](O)[C@H](O)[C@H]3O)C[C@]12C [Ginsenoside Rg1]
substantia nigra neurons loss [4]: protect against substantia nigra neurons loss

Molecule: COc1cc2c(c(O)c1OC)-c1c(cc(OC)c(OC)c1OC)C[C@@H](C)[C@@H](C)C2 [Schisanhenol]
peroxidative damages of brain mitochondria and membranes [5]: completely inhibited

Molecule: COc1cc2c(c(OC)c1OC)-c1c(cc(OC)c(OC)c1OC)C[C@](C)(O)[C@@H](C)C2 [Schizandrin]
potency of protective action against oxidative stress relative to Schisanhenol [5]: weaker than that of Schisanhenol

Molecule: COc1cc2c(c(OC)c1OC)-c1c(cc3c(c1OC)OCO3)CC(C)C(C)C2 (stereo not drawn) [Schizandrins B]
extent of lipid peroxidation in brain tissue [6]: dose-dependent decrease

Molecule: COC1=C(OC)C(=O)C(C/C=C(\C)CC/C=C(\C)CC/C=C(\C)CC/C=C(\C)CC/C=C(\C)CC/C=C(\C)CC/C=C(\C)CC/C=C(\C)CC/C=C(\C)CCC=C(C)C)=C(C)C1=O [coenzyme Q10, Coenzyme Q10]
disease progression [7]: can slow disease progression

affinity for alpha 1-adrenergic receptors [8]: no affinity
affinity for alpha 2-adrenergic receptors [9]: no affinity
affinity for dopamine D2 receptors [10]: no affinity
affinity for serotonin receptors [12]: no affinity
affinity for dopamine D1 receptors [13]: no affinity
Molecule: COc1cc2c(c(OC)c1OC)-c1c(cc(OC)c(OC)c1OC)C[C@](C)(O)[C@@H](C)C2 [schizandrol A]
dopamine and its metabolite DOPAC (in striatum) and DA (in hypothalamus) [11]: Significant elevations

Molecule: Vitamin E
severity of tardive dyskinesia [14]: appears to be effective
